# Laboratory results taken from ChEMBL document CHEMBL3045623, “Pyrazole derivatives as photosynthetic electron transport inhibitors: new leads and structure-activity relationship” (J Agric Food Chem, 2005).
# Target: Photosystem II protein D1 (Spinacia oleracea, UniProt P69560)
# Test: Inhibition of photosynthetic electron transport at the PSII level in intact chloroplasts from Spinacia oleracea (spinach) leaves assessed as inhibition of in vitro activity by Hill reaction assay
# Settings: not given
row,pIC50,Compound
1,< 1,Cc1[nH]nc(C(=O)NC2CC2)c1C(=O)O
2,< 1,Cc1c(C(=O)O)c(C(=O)NC(C)(C)C)nn1C(C)(C)C

# Same assay, conditions: read-out: IC50
row,Compound,IC50
1,Cc1onc(C(=O)NC2CC2)c1C(=O)O,100 µM
2,Cc1c(C(=O)O)c(C(=O)NC(C)(C)C)nn1C,670 µM
3,Cc1c(C(=O)O)c(C(=O)NC2CC2)nn1-c1ccc(Cl)cc1,370 µM
4,Cc1c(C(=O)O)c(C(=O)NC2CC2)nn1-c1c(Cl)cc(C(F)(F)F)cc1Cl,12200 µM
5,O=c1sc(Nc2ccc(Cl)cc2)nc2[nH]ncc12,38.5 µM
6,O=c1sc(Nc2ccccc2Cl)nc2[nH]ncc12,47.8 µM
7,CCCCNc1nc2[nH]ncc2c(=O)s1,211 µM
8,O=c1sc(NCc2ccccc2)nc2[nH]ncc12,10.8 µM
9,O=c1sc(NC2CCCCC2)nc2[nH]ncc12,66.5 µM
10,S=c1sc(Nc2ccc(Br)cc2)nc2[nH]ncc12,6.06 µM
11,CCNc1nc2[nH]ncc2c(=S)s1,10.7 µM
12,CCCCNc1nc2[nH]ncc2c(=S)s1,2.67 µM
13,S=c1sc(NCc2ccccc2)nc2[nH]ncc12,2.84 µM
14,S=c1sc(NC2CCCCC2)nc2[nH]ncc12,0.64 µM

# Results, then the molecule that gave them:
row,IC50,Compound
1,> 100000 µM,Cc1[nH]nc(C(=O)NC2CC2)c1C(=O)O
2,1190 µM,Cc1c(C(=O)O)c(C(=O)NC2CC2)nn1C
3,290 µM,Cc1onc(C(=O)NC(C)(C)C)c1C(=O)O
4,7600 µM,Cc1c(C(=O)O)c(C(=O)NC(C)(C)C)nn1-c1ccccc1
5,950 µM,Cc1c(C(=O)O)c(C(=O)NC(C)(C)C)nn1-c1ccc(Cl)cc1
6,1040 µM,Cc1c(C(=O)O)c(C(=O)NC(C)(C)C)nn1-c1c(Cl)cc(C(F)(F)F)cc1Cl
7,> 100000 µM,Cc1c(C(=O)O)c(C(=O)NC(C)(C)C)nn1C(C)(C)C
8,68000 µM,Cc1c(C(=O)O)c(C(=O)NC2CC2)nn1C(C)(C)C
9,22500 µM,Cc1c(C(=O)O)c(C(=O)NC2CC2)nn1-c1ccccc1
10,33.2 µM,O=c1sc(Nc2cccc(C(F)(F)F)c2)nc2[nH]ncc12
11,28.5 µM,O=c1sc(Nc2ccc(Br)cc2)nc2[nH]ncc12
12,48 µM,O=c1sc(Nc2cccc(Cl)c2)nc2[nH]ncc12
13,1060 µM,O=c1sc(Nc2ccc([N+](=O)[O-])cc2)nc2[nH]ncc12
14,335 µM,CCNc1nc2[nH]ncc2c(=O)s1
15,2.78 µM,FC(F)(F)c1cccc(Nc2nc3[nH]ncc3c(=S)s2)c1
16,21.3 µM,S=c1sc(Nc2ccc(Cl)cc2)nc2[nH]ncc12
17,15.3 µM,S=c1sc(Nc2cccc(Cl)c2)nc2[nH]ncc12
18,43.1 µM,S=c1sc(Nc2ccccc2Cl)nc2[nH]ncc12

# Same assay, conditions: read-out: pIC50 (converted)
row,Compound,IC50
1,CCC(C)n1c(=O)[nH]c2cc(C)nn2c1=O (configuration not stated),2.6 µM
2,CCn1c(=O)[nH]c2cc(C)nn2c1=O,32 µM
3,Cc1cc2[nH]c(=O)n(C3CCCCC3)c(=O)n2n1,0.32 µM
4,Cc1cc2[nH]c(=O)s/c(=N/Cc3ccccc3)n2n1,18 µM
5,CN(C)c1nc(=O)n(C2CCCCC2)c(=O)n1C [HEXAZINONE],0.11 µM
6,O=c1[nH]c2c(c(=O)n1C1CCCCC1)CCC2 [LENACIL],0.08 µM

# The next lines start with the values.
row,IC50,Compound
1,6.61 µM,CCCCn1c(=O)[nH]c2cc(C)nn2c1=O
2,42 µM,Cc1cc2[nH]c(=O)n(Cc3ccccc3)c(=O)n2n1
3,169 µM,Cc1cc2[nH]c(=O)n(-c3ccccc3)c(=O)n2n1
4,2.9 µM,CC/N=c1/sc(=O)[nH]c2cc(C)nn12
5,0.57 µM,CCCC/N=c1/sc(=O)[nH]c2cc(C)nn12
6,0.21 µM,Cc1cc2[nH]c(=O)s/c(=N/C3CCCCC3)n2n1
7,0.27 µM,CN(C)C(=O)Nc1ccc(Cl)c(Cl)c1 [DCMU]
